Experimental data from US10168342B2, “Lipid probes and uses thereof” (THE SCRIPPS RESEARCH INSTITUTE, priority 2015, dated 2019).

Legend:
Assay in all cases: isoTOP-ABPP mapping of AEA-DA-modified peptides in Neuro2a cells
Type in all cases: cell-based
[1] = target: T1, AEA-DA-modified peptides in Neuro2a cells (Mus musculus, UniProt Q61425); conditions: AEA-DA-modified peptide HADH Q61425 250-272, SEQ ID NO 47; probe 100 μM, 12 replicates
T1 construct: endogenous in cells; host or cells: Neuro2a
T1 sequence (Q61425 13-314): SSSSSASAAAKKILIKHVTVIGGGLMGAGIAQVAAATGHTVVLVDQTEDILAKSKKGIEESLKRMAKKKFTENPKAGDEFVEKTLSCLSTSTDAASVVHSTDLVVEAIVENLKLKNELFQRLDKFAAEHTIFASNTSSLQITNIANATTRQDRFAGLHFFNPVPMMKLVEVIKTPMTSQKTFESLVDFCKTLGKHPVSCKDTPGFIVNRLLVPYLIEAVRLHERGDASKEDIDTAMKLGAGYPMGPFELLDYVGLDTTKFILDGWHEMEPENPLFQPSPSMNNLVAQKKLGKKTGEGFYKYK

[2] = target: T2, AEA-DA-modified peptides in Neuro2a cells (Mus musculus, UniProt O35737); conditions: AEA-DA-modified peptide HNRNPH 1 O35737 50-69, SEQ ID NO 49; probe 100 μM, 12 replicates
T2 construct: endogenous in cells; host or cells: Neuro2a
T2 sequence (O35737 whole entry): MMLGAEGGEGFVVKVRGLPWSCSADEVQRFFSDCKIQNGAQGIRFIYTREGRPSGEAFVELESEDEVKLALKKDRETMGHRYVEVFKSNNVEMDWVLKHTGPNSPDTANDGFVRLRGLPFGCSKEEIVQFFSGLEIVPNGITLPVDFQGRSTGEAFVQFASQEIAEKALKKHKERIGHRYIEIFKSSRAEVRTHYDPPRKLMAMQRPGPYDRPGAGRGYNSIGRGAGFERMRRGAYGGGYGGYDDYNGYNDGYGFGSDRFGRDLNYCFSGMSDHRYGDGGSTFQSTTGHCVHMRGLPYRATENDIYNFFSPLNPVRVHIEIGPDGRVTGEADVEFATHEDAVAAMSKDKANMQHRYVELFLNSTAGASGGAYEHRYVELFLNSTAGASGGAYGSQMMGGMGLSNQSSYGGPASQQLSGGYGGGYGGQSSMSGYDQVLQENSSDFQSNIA

[3] = target: T3, AEA-DA-modified peptides in Neuro2a cells (Mus musculus, UniProt Q9CPQ8); conditions: AEA-DA-modified peptide ATP5L Q9CPQ8 36-55, SEQ ID NO 19; probe 100 μM, 12 replicates
T3 construct: endogenous in cells; host or cells: Neuro2a

[4] = target: T4, AEA-DA-modified peptides in Neuro2a cells (Mus musculus, UniProt Q91YE6); conditions: AEA-DA-modified peptide IPO9 Q91YE6 777-788, SEQ ID NO 54; probe 100 μM, 12 replicates
T4 construct: endogenous in cells; host or cells: Neuro2a
T4 sequence (Q91YE6 whole entry): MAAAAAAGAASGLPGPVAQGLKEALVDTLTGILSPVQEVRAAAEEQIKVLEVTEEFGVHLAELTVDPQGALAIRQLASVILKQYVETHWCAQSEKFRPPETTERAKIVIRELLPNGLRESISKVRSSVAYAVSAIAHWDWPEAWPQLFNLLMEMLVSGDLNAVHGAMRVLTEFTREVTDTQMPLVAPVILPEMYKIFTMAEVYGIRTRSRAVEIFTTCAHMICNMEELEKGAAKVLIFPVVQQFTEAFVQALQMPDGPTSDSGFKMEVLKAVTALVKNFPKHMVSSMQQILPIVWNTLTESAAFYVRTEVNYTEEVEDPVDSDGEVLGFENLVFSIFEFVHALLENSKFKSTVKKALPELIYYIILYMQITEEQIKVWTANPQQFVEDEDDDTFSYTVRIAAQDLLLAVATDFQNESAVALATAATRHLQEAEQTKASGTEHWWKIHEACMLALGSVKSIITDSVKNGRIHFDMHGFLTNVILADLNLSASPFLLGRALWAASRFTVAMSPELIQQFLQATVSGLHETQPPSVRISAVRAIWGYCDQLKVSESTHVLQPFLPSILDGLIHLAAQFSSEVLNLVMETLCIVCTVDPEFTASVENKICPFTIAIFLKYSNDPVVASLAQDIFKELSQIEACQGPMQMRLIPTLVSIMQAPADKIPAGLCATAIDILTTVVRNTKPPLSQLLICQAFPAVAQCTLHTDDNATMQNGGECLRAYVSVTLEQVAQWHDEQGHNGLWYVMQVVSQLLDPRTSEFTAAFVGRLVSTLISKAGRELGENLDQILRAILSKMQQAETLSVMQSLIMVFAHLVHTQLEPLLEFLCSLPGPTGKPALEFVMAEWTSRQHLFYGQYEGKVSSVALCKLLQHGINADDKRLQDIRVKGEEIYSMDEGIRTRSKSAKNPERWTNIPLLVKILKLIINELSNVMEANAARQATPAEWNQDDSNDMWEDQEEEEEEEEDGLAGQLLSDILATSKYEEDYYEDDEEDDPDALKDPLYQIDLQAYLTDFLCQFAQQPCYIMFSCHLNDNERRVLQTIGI

[5] = target: T5, AEA-DA-modified peptides in Neuro2a cells (Mus musculus, UniProt P19157); conditions: AEA-DA-modified peptide GSTP1 P19157 104-117, SEQ ID NO 46; probe 100 μM, 12 replicates
T5 construct: endogenous in cells; host or cells: Neuro2a
T5 sequence (P19157 whole entry): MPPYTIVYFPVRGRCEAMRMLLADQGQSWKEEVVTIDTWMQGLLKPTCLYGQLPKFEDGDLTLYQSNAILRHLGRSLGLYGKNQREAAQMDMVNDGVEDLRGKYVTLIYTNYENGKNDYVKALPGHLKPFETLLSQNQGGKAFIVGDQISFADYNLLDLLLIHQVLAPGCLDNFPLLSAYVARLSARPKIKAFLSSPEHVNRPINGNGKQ

[6] = target: T6, AEA-DA-modified peptides in Neuro2a cells (Mus musculus, UniProt P57780); conditions: AEA-DA-modified peptide ACTN4 P57780 839-855, SEQ ID NO 4; probe 100 μM, 12 replicates
T6 construct: endogenous in cells; host or cells: Neuro2a
T6 sequence (P57780 whole entry): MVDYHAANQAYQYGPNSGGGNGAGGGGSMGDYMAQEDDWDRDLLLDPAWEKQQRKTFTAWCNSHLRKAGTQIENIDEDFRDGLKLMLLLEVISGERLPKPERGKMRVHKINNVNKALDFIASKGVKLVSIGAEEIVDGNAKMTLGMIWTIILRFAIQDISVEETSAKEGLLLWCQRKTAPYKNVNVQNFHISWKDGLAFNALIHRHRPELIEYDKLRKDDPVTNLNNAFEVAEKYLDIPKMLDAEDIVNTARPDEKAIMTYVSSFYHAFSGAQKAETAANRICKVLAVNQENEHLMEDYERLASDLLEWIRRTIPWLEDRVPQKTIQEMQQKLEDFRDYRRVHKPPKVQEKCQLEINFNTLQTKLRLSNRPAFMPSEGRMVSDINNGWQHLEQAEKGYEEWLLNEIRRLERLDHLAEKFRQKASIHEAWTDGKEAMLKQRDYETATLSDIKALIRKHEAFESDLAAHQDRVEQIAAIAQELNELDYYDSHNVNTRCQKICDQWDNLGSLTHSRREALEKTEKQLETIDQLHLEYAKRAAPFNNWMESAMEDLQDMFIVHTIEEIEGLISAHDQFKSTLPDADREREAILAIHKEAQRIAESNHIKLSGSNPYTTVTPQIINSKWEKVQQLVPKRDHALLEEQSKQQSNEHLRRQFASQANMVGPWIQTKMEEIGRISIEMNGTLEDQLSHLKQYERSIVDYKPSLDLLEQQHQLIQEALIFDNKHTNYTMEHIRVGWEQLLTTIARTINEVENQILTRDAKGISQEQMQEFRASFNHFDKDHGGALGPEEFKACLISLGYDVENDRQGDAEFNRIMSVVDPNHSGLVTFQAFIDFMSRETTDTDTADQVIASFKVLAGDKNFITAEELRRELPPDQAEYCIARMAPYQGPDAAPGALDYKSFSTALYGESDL

[7] = target: T7, AEA-DA-modified peptides in Neuro2a cells (Mus musculus, UniProt Q9CQX2); conditions: AEA-DA-modified peptide CYB5B Q9CQX2 138-145, SEQ ID NO 28; probe 100 μM, 12 replicates
T7 construct: endogenous in cells; host or cells: Neuro2a
T7 sequence (Q9CQX2 12-146): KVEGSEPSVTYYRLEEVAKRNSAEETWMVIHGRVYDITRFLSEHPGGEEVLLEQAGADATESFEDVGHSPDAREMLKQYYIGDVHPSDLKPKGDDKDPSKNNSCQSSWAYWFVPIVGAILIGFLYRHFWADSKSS

[8] = target: T8, AEA-DA-modified peptides in Neuro2a cells (Mus musculus, UniProt Q8R2Y8); conditions: AEA-DA-modified peptide PTRH2 Q8R2Y8 35-69, SEQ ID NO 93; probe 100 μM, 12 replicates
T8 construct: endogenous in cells; host or cells: Neuro2a
T8 sequence (Q8R2Y8 whole entry): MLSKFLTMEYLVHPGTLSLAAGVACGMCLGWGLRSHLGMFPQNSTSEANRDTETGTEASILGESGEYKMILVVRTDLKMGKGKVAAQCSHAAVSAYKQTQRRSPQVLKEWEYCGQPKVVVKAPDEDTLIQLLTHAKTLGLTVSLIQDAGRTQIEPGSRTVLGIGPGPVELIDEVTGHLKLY

[9] = target: T9, AEA-DA-modified peptides in Neuro2a cells (Mus musculus, UniProt Q99P72); conditions: AEA-DA-modified peptide RTN4 Q99P72 1045-106, SEQ ID NO 94; probe 100 μM, 12 replicates
T9 construct: endogenous in cells; host or cells: Neuro2a
T9 sequence (Q99P72 whole entry): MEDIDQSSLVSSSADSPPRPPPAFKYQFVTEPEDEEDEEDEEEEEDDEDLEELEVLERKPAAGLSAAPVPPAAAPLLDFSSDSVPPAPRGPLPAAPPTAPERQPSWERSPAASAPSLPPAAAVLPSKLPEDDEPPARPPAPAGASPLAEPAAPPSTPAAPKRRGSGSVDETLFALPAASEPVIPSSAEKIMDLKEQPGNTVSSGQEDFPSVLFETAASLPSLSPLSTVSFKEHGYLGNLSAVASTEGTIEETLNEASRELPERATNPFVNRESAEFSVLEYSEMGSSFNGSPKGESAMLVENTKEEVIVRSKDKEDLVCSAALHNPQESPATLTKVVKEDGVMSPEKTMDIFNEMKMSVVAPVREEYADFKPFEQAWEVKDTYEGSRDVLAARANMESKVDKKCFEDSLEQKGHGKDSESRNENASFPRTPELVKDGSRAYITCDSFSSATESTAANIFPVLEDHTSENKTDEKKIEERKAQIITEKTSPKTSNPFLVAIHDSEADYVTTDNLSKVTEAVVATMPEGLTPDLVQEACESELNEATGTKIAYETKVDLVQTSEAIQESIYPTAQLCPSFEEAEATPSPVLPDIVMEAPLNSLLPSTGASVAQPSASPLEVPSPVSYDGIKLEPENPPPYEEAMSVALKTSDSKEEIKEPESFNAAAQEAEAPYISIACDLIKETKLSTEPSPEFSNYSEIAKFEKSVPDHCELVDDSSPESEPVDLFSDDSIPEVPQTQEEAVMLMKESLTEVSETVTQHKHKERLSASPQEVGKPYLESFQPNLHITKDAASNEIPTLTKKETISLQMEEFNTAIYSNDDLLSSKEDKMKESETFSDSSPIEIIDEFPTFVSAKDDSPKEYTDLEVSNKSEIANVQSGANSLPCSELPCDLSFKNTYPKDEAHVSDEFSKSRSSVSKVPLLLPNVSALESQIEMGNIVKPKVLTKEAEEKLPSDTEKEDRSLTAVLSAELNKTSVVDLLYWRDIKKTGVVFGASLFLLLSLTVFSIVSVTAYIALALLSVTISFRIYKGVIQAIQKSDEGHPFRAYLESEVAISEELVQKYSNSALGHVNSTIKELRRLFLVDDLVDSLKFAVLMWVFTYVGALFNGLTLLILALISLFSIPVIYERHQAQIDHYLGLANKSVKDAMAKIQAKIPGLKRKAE

[10] = target: T10, AEA-DA-modified peptides in Neuro2a cells (Mus musculus, UniProt P52825); conditions: AEA-DA-modified peptide CPT2 P52825 363-383, SEQ ID NO 26; probe 100 μM, 12 replicates
T10 construct: endogenous in cells; host or cells: Neuro2a

[11] = target: T11, AEA-DA-modified peptides in Neuro2a cells (Mus musculus, UniProt Q791V5); conditions: AEA-DA-modified peptide MTCH2 Q791V5 91-112, SEQ ID NO 62; probe 100 μM, 12 replicates
T11 construct: endogenous in cells; host or cells: Neuro2a
T11 sequence (Q791V5 whole entry): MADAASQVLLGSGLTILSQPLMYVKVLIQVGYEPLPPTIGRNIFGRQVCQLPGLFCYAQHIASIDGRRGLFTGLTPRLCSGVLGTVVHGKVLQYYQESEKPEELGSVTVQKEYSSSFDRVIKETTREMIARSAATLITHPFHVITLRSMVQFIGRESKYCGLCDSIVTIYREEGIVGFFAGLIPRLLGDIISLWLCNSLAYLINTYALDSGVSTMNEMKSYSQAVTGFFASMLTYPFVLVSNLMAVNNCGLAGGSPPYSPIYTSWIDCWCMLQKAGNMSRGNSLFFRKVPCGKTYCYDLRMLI

[12] = target: T12, AEA-DA-modified peptides in Neuro2a cells (Mus musculus, UniProt Q9CQV8); conditions: AEA-DA-modified peptide YWHAB Q9CQV8 196-225, SEQ ID NO 120; probe 100 μM, 12 replicates
T12 construct: endogenous in cells; host or cells: Neuro2a
T12 sequence (Q9CQV8 whole entry): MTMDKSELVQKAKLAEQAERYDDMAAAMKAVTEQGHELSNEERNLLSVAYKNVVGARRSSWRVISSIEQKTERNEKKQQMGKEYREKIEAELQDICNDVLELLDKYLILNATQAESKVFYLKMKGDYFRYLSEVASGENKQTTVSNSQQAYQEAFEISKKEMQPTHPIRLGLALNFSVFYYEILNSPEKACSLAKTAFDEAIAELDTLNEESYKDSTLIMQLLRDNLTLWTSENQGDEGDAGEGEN

C#CCCCC1(CC/C=C\C/C=C\C/C=C\CCCC(=O)NCCO)N=N1 [AEA-DA, (5Z,8Z,11Z)-N-(2-hydroxyethyl)-14-(3-(pent-4-yn-1-yl)-3H-diazirin-3-yl)tetradeca-5,8,11-trienamide]
Times observed [1]: 10
Times observed [2]: 9
Times observed [3]: 3
Times observed [4]: 3
Times observed [5]: 4
Times observed [6]: 2
Times observed [7]: 2
Times observed [8]: 2
Times observed [9]: 7
Times observed [10]: 6
Times observed [11]: 2
Times observed [12]: 8
